{"source": "patent EP1024807B1", "about": "“USE OF THE COMPOUND 2-METHOXYPHENYL-1-METHYL-5P-METHYLBENZOYL-PYRROL-2-ACETAMIDO ACETATE FOR THE PRODUCTION OF AN ANTI-INFLAMMATORY DRUG WITH PREVENTION OF GASTRIC HYPERSECRETION AND RENAL IMPAIRMENT” (MEDOSAN Ricerca S.r.l., priority 1997, dated 1999)", "key": {"rat [1]": {"test_system": "rat", "experiment": "Chronic oral administration for 52 weeks, gastric damage", "format": "in vivo"}, "Rats [2]": {"test_system": "Rats", "experiment": "Diuresis in normally hydrated rats", "format": "in vivo", "experimental": "In the course of various studies conducted on animals to show the lack of renal impairment, a test was carried out to compare the diuresis in normally hydrated rats treated orally for 8 consecutive days with amtolmeting guacyl and diclofenac, which is also a NSAID. […] It is to be stressed that the behaviour of diclofenac is completely in line with the behaviour of a NSAID as known in the art, that is to say to markedly reduce the diuresis, while that of amtolmeting guacyl is completely unforeseeable.\nRepeated doses (one per day) for 8 days increased diuresis in the treated rats by 35% (see fig. 13)."}, "Cynomolgous monkey": {"test_system": "Cynomolgous monkey", "experiment": "Chronic oral administration for 52 weeks, gastric damage", "format": "in vivo"}, "[3]": {"test_system": "guinea-pig isolated ileum", "experiment": "Intestinal motility in isolated ileum with various agonists", "settings": "all of the traditional agonists (histamine, acetylcholine, serotonin)", "description": "In parallel we also studied the possible effect on intestinal motility in the guinea-pig isolated ileum (b.r. No. 29) using various agonists (fig. 7, 8 and 9)."}, "Rats [4]": {"test_system": "Rats", "experiment": "Carrageenan pleurisy, exudate volume at 4 hours", "format": "in vivo", "settings": "for Exudate volume: 4 hour; for decrease exudate volume: compared to gum tragacanth control", "experimental": "Compounds were administered orally 1 hour prior to and 1 hour post pleurisy induction in a volume of 0.5 ml 1% gum tragacanth. Indomethacin was used at 3 mg/kg. MED 15 was used at 25, 50 and 100 mg/kg.\nA 1% solution of carrageenan in sterile saline was prepared. The solution was placed in an incubator at 37°C for half an hour to allow complete hydration of the carrageenan. The solution was then mixed to homogeneity.\nA 21Gx40mm syringe needle was reduced in length to 5mm and fitted to a 1ml syringe containing the irritant. Rats were lightly anaesthetised with halothane. Each animal was placed on its left side. The skin over the thorax was lifted with and a 1cm incision made through the skin with a pair of scissors. The wound was opened to expose the underlying muscle. Using a scalpel, a 2-3mm incision was made into the muscle of the 5th-6th intercostal space. A volume of 0.15ml of carrageenan solution was then injected into the pleural cavity. The wound was closed with a 11mm Michel clip and the animal allowed to recover from the anaesthetic. Groups of animals were killed 4 hours after pleurisy induction.\nLavage solution: One part of 3.15% trisodium citrate solution, mixed with nine parts of Hank's balanced salt solution.\nRats were killed by over exposure to carbon dioxide. For each rat the skin over the thorax was moistened with IMS alcohol. The skin over the sternum was then lifted and a 5cm cut made, to expose the musculature of the upper abdomen and thoracic cavity. The muscle overlying the xiphisternum was lifted with tissue forceps and a 1cm cut made through the muscle to reveal the cartilage. This was then lifted and the diaphragm perforated just beneath the cartilage. Two cuts were then made through the rib cage either side of the cartilage to form a flap which could be folded back to expose the thoracic cavity.\nUsing a syringe, 1ml of lavage fluid was introduced into the thoracic cavity. The fluid was aspirated 2-3 times with a 3ml pastette to wash the cavity, before being collected into separate 10ml conical-based plastic test-tubes. Any blood contaminated fluids were rejected.\nThe mass of each tube with fluid was determined. By subtracting the mass of an empty tube from these values, and assuming a density for the fluid of 1g/cm^3, the fluid volume was quantified.\nResults were analysed by ANOVA followed by Bonferroni T-test. Values of p<0.05 were considered significant.\nDosing was one hour prior to and one hour post pleurisy induction and inflammation was assessed at 4 hours."}, "Saccharomycetes pombe Pl": {"test_system": "Saccharomycetes pombe Pl", "format": "cell-based"}, "COX2 (cyclooxygenase 2)": {"biological_target": "T1, COX2 (cyclooxygenase 2) (Rattus norvegicus, UniProt P35355)", "T1 construct": "the pharmacological studies conducted in rats; from tissue; host or cells: rat (in vivo; tissue not given)", "T1 sequence (P35355 18-604)": "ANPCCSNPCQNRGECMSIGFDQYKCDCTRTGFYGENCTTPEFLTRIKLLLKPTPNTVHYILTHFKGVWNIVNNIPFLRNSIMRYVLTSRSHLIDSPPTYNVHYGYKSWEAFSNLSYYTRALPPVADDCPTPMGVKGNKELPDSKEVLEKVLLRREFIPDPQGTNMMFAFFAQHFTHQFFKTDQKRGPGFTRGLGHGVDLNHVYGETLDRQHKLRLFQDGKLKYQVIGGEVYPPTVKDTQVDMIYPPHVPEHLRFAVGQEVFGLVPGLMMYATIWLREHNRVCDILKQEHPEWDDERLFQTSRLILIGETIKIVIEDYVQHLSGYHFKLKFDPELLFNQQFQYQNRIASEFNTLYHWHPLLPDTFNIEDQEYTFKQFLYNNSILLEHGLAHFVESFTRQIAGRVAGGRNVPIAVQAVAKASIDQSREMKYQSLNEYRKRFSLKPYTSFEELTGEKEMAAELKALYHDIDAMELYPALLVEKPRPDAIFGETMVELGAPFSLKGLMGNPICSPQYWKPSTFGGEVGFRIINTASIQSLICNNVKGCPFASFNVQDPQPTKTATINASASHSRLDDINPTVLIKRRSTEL", "experiment": "Pharmacological studies in rats: cyclooxygenase inhibition", "settings": "in vivo"}, "rat [5]": {"test_system": "rat", "experiment": "Carcinogenesis studies, gavage over the life-span", "format": "in vivo", "settings": "gavage for a period covering the animal's life-span"}, "platelet aggregation": {"test_system": "platelet aggregation", "experiment": "Platelet aggregation", "description": "For all of these reasons the drug was expected to induce gastric damage and inhibit platelet aggregation."}, "[6]": {"test_system": "human lymphocites cultivated in vitro", "experiment": "Chromosome aberrations in lymphocytes in vitro", "format": "cell-based"}, "rabbit": {"test_system": "rabbit", "experiment": "Fertility, embryotoxicity and teratogenicity studies", "format": "in vivo"}, "Saccharomycetes D4": {"test_system": "Saccharomycetes D4", "experiment": "Mitotic conversion test", "format": "cell-based"}, "[7]": {"experiment": "Persistence of intact molecule in gastric and intestinal walls", "format": "in vivo", "settings": "after oral administration in the rat", "experimental": "The presence of the vanilloid radical, essential to the expression of the gastroprotective mechanism, is guaranteed by the prolonged persistence of high amounts of intact amtolmetin guacyl molecule in the gastric and intestinal walls (at least 2 hours after oral administration in the rat)."}, "patients": {"test_system": "patients", "experiment": "Clinical trials: tolerability, adverse events and suspensions of treatment", "format": "in vivo, man", "settings": "in vivo", "description": "Interest in the amtolmetin guacyl molecule arose following a thorough analysis of the results of 31 comparative and 6 non-comparative clinical trials involving 1596 patients. […] Turthermore the physician, being aware of administering an NSAID, was expecting adverse events and could not be expected to be an impartial observer. The few cases of gastro-intestinal phenomena reported with amtolmetin guacyl were transitory and in no event accompanied by the presence of occult blood in the stools. Moreover, even in the presence of a reported side-effect it was almost never necessary to suspend treatment (0.4% of suspensions).\nFollowing are summarized the results obtained on a total of 1596 patients in 37 clinical trials.\nConfirmation of the above described advantages is the very low incidence of treatment suspension for adverse events found in clinics (Table 17), which is not the case for most of NSAIDs known in the art (Table 18)."}, "H2 receptors": {"biological_target": "T2, H2 receptors (Cavia porcellus, UniProt P47747)", "T2 construct": "using an organ in which only H2 receptors were present (guinea-pig atrium); from tissue; host or cells: guinea-pig atrium", "T2 sequence (P47747 whole entry)": "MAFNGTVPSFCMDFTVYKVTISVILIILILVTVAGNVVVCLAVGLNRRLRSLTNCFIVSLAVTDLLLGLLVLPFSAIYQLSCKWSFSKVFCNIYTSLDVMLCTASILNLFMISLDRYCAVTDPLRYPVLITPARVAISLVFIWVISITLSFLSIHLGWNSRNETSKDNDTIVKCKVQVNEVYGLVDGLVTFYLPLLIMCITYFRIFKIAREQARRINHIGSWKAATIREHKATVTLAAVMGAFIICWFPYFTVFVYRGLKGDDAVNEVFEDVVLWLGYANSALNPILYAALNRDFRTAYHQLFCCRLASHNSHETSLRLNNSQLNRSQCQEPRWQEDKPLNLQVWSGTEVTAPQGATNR", "experiment": "Isolated atrium, histamine stimulation", "settings": "guinea-pig atrium, fig. 5", "description": "On the basis of the above series of observations, we decided to study the pharmacological behaviour of a number of widely used NSAIDs (including amtolmetin guacyl) towards the gastric mucosa in the rat, as previously described. […] The first hypothesis was that we were deling with an anti-H2 drug, given the fact that its potency could be compared with that of cimetidine."}}, "data": [{"compound": "COc1ccccc1OC(=O)CNC(=O)Cc1ccc(C(=O)c2ccc(C)cc2)n1C", "note": "[MED 15, 2-methoxyphenyl-1-methyl-5p-methylbenzoylpyrrol-2-acetamido acetate]", "values": [{"measurement": "gastric damage", "setting": "rat [1]", "result": "absence of gastric damage"}, {"measurement": "increased diuresis", "setting": "Rats [2]; repeated doses (one per day) for 8 days", "result": 35, "unit": "%"}, {"measurement": "increased diuresis", "setting": "Rats [2]; single dose, average", "result": 10, "unit": "%"}, {"measurement": "diuresis", "setting": "Rats [2]; treated orally for 8 consecutive days, fig. 13", "result": "definite increase in diuresis"}, {"measurement": "gastric damage", "setting": "Cynomolgous monkey", "result": "absence of gastric damage"}, {"measurement": "motility", "setting": "[3]", "result": "decrease in motility"}, {"measurement": "Exudate volume", "setting": "Rats [4]; 25mg/kg orally 1 hour prior to and 1 hour post induction", "result": "0.84 ± 0.09", "unit": "mL"}, {"measurement": "decrease exudate volume", "setting": "Rats [4]; 25mg/kg", "result": 11, "unit": "%"}, {"measurement": "Exudate volume", "setting": "Rats [4]; 50mg/kg orally 1 hour prior to and 1 hour post induction", "result": "0.74 ± 0.06", "unit": "mL"}, {"measurement": "decrease exudate volume", "setting": "Rats [4]; 50mg/kg", "result": 21, "unit": "%"}, {"measurement": "Exudate volume", "setting": "Rats [4]; 100mg/kg orally 1 hour prior to and 1 hour post induction", "result": "0.53 ± 0.05", "unit": "mL"}, {"measurement": "decrease exudate volume", "setting": "Rats [4]; 100mg/kg", "result": 44, "unit": "%"}, {"measurement": "forward mutation", "setting": "Saccharomycetes pombe Pl", "result": "absence of amtolmetin guacyl-related damage"}, {"measurement": "inhibition of COX2", "setting": "COX2 (cyclooxygenase 2)", "result": "inhibition"}, {"measurement": "Carcinogenesis", "setting": "rat [5]", "result": "innocuity"}, {"measurement": "platelet antiaggregating properties", "setting": "platelet aggregation", "result": "significant platelet antiaggregating properties"}, {"measurement": "chromosomic aberrations", "setting": "[6]", "result": "absence of amtolmetin guacyl-related damage"}, {"measurement": "fertility, embriotoxicity and teratogenicity", "setting": "rabbit", "result": "safety"}, {"measurement": "mitotic conversion", "setting": "Saccharomycetes D4", "result": "absence of amtolmetin guacyl-related damage"}, {"measurement": "persistence of high amounts of intact molecule in the gastric and intestinal walls", "setting": "[7]", "result": "at least 2 hours"}, {"measurement": "Treatment suspended", "setting": "patients; human", "result": 4}, {"measurement": "incidence of adverse events involving the stomach", "setting": "patients; human", "result": "~5", "unit": "%"}, {"measurement": "reports of gastric discomfort", "setting": "patients; human", "result": 4, "unit": "%"}, {"measurement": "Treatment suspended", "setting": "patients; human, 10 days", "result": 3}, {"measurement": "Treatment suspended %", "setting": "patients; human, 10 days", "result": "1,6%"}, {"measurement": "Treatment suspended", "setting": "patients; human, 21 days", "result": 0}, {"measurement": "Treatment suspended", "setting": "patients; human, 30 days", "result": 1}, {"measurement": "Treatment suspended %", "setting": "patients; human, 30 days", "result": "0,7%"}, {"measurement": "Treatment suspended", "setting": "patients; human, 60 days", "result": 0}, {"measurement": "Treatment suspended", "setting": "patients; human, 90 days", "result": 0}, {"measurement": "Treatment suspended", "setting": "patients; human, 120 days", "result": 0}, {"measurement": "Treatment suspended", "setting": "patients; human, 150 days", "result": 0}, {"measurement": "Treatment suspended", "setting": "patients; human, 180 days", "result": 0}, {"measurement": "gastric lesions", "setting": "patients", "result": "not to induce gastric lesions"}, {"measurement": "variations of the routine biological parameters", "setting": "patients", "result": "no significant variations"}, {"measurement": "interference with the H2 receptors", "setting": "H2 receptors", "result": "did not interfere with the H2 receptors"}]}]}
